Source: ChEMBL document CHEMBL1944549, “Small molecule inhibitors of BRAF in clinical trials” (Bioorg Med Chem Lett, 2012)

Tests used:
[1] = Antitumor activity against human melanoma cells harboring patient assessed as increase in survival of patient at 1000 mg/kg, iv administered 3 times a week; assay type: functional; settings: Melanoma cell
HCT-116 = test: Growth inhibition of human HCT116 cells expressing wild-type B-Raf and K-Ras2 G13D mutant after 72 hrs by WST-1 assay; assay type: functional, cell-based; settings: HCT-116, 72 h
SK-MEL-2 = test: Growth inhibition of human SK-MEL-2 cells expressing wild-type B-Raf and N-Ras2 Q61R mutant after 72 hrs by WST-1 assay; assay type: functional, cell-based; settings: SK-MEL-2, 72 h
[2] = Toxicity in po dosed cancer patient bearing B-Raf V600E mutation administered BID; assay type: organism-based; settings: human, in vivo
[3] = Antitumor activity against human melanoma cells assessed as increase in survival of patient at […], po administered BID; assay type: functional; settings: Melanoma cell

CC(C)(C)c1nc(-c2cccc(NS(=O)(=O)c3c(F)cccc3F)c2F)c(-c2ccnc(N)n2)s1 [DABRAFENIB]
survival at 1000 mg/kg [1]: 64%

CN(C)CCOc1ccc(-c2nc(-c3ccncc3)c(-c3ccc4c(c3)CC/C4=N\O)[nH]2)cc1 [SB590885]
EC50 (HCT-116): 1.1 µM
EC50 (SK-MEL-2): 1.1 µM

CCCS(=O)(=O)Nc1ccc(F)c(C(=O)c2c[nH]c3ncc(-c4ccc(Cl)cc4)cc23)c1F [VEMURAFENIB]
MTD [2]: 960 mg
survival [3]: 84%
